One assay has as its system MT4. In words: Cytotoxicity against human MT4 cells assessed as reduction in cell viability by CellTiter-Glo luminescent cell viability assay. The format is functional.
Assay [1] concerns Human immunodeficiency virus 1. In words: Anti-HIV activity against HIV-1 NL4-3 Nanoluc-sec virus infected in human MT4 cells assessed as luciferase activity and measured 3 days post-infection by Nano-Glo luciferase assay. The assay is classed as functional, organism-based. The settings on record: Human immunodeficiency virus 1, NL4-3, MT4, 72 h.

Six compounds from ChEMBL document CHEMBL5120897, “Anti-HIV Tigliane-Type Diterpenoids from the Aerial Parts of Wikstroemia lichiangensis” (J Nat Prod, 2022) can be followed below.

The term CC50 denotes the concentration giving 50% cytotoxicity. For orientation: IC50 means the point on the concentration scale where inhibition reaches its midpoint. In the case of `CCCCCCCCCC(=O)O[C@@]12[C@H](OC(=O)c3ccccc3)[C@@H](C)[C@]3(O)[C@@H]4C=C(C)C(=O)[C@@]4(O)[C@H](O)C(CO)=C[C@H]3[C@@H]1C2(C)C`, the CC50 in the assay with MT4 was > 7000 nM. Further, in assay [1], the IC50 was 1.5 nM.

Regarding `CCCC/C=C/C=C/CC(=O)O[C@@]12[C@H](OC(=O)c3ccccc3)[C@@H](C)[C@@]3(O)[C@@H](C=C(CO)C[C@]4(O)C(=O)C(C)=C[C@@H]34)[C@@H]1C2(C)C`, the CC50 in the assay with MT4 was > 7000 nM. Also, the IC50 in assay [1] amounted to 3 nM.

Consider `CCCC/C=C/C=C/CC(=O)O[C@@]12[C@H](OC(=O)c3ccccc3)[C@@H](C)[C@]3(O)[C@@H]4C=C(C)C(=O)[C@@]4(O)[C@H](O)C(CO)=C[C@H]3[C@@H]1C2(C)C`, for which the CC50 in the assay with MT4 is > 7000 nM. The IC50 in assay [1] is 65.4 nM.

With `C=C(C)[C@]12C[C@@H](COC(=O)c3ccccc3)[C@@]34OC5(O[C@@H]1[C@@H]3[C@@H]1O[C@]1(CO)[C@@H](O)[C@@]1(O)[C@H]4[C@H]([C@H](C)[C@@H]1OC(=O)c1ccccc1)[C@H](C)CCCCCC[C@H]5O)O2`, the CC50 in the assay on MT4 is > 7000 nM. Further, the IC50 in assay [1] came out at 0.15 nM.

For `CCCCCC/C=C/CC(=O)O[C@@]12[C@H](OC(=O)c3ccccc3)[C@@H](C)[C@]3(O)[C@@H]4C=C(C)C(=O)[C@@]4(O)[C@H](O)C(CO)=C[C@H]3[C@@H]1C2(C)C`, the CC50 in the assay with MT4 is > 7000 nM. In addition, in assay [1], the concentration for half-maximal inhibition (IC50) stood at 1.5 nM.

Turning to `CCCCCC/C=C/CC(=O)O[C@@]12[C@H](OC(=O)c3ccccc3)[C@@H](C)[C@@]3(O)[C@@H](C=C(CO)C[C@]4(O)C(=O)C(C)=C[C@@H]34)[C@@H]1C2(C)C`, the CC50 with MT4 was > 7000 nM. Further, the half-inhibitory concentration (IC50) in assay [1] is 1.1 nM.
